Results: ChEMBL document CHEMBL5046295 (J Med Chem, 2022)
Active and inactive are the calls of the source. The calls are words filed in the database; no cut-off is given here.

Tests used:
[1] = target: T1, Mu-type opioid receptor (Mus musculus, UniProt P42866)
[2] = tested on: Mus musculus; experiment: Antinociceptive activity against Swiss Webster mouse model assessed as increase in tail withdrawal latency from warm water at 10 mg/kg, sc incubated for 5 mins followed by morphine addition and measured after 20 mins by warm water tail immersion assay; format: functional, organism-based
[3] = target: T2, Kappa-type opioid receptor (Mus musculus, UniProt P33534); experiment: biochemical
T2 sequence (P33534 whole entry): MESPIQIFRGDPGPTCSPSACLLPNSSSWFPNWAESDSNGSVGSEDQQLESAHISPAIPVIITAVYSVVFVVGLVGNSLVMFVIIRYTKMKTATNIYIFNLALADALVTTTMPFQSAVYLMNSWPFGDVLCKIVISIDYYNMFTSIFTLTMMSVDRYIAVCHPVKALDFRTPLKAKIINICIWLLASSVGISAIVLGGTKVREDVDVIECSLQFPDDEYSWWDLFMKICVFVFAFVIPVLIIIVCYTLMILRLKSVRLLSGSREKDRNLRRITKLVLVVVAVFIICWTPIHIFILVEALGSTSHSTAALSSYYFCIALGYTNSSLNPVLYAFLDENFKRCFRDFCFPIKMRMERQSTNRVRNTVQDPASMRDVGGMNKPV
Description: Antagonist activity at mouse kappa opioid receptor expressed in CHO cell membranes assessed as reduction in U50,488H induced [35S]GTPgammaS binding incubated for 1.5 hrs by liquid scintillation counting method

[4] = target: T3, Delta-type opioid receptor (Homo sapiens, UniProt P41143)
T3 sequence (P41143 whole entry): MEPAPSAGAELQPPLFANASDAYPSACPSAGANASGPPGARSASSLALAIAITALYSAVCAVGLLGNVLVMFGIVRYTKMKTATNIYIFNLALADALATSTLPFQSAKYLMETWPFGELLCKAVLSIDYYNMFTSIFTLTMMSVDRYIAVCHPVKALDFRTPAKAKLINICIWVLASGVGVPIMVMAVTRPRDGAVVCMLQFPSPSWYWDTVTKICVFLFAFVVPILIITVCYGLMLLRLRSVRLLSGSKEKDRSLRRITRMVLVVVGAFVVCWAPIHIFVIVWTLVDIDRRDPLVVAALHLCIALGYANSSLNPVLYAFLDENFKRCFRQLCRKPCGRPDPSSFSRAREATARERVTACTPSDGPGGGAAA
Description: Displacement of [3H]-diprenorphine from human delta opioid receptor expressed in CHO cell membranes assessed as inhibition constant incubated for 1.5 hrs by competitive binding assay

[5] = target: T1, Mu-type opioid receptor; experiment: Partial agonist activity at mouse mu opioid receptor expressed in CHO cell membranes incubated for 1.5 hrs by [35S]GTPgammaS binding based liquid scintillation counting method
[6] = target: T3, Delta-type opioid receptor; experiment: biochemical
Description: Antagonist activity against human delta opioid receptor expressed in CHO cell membrane assessed as reduction in SNC80 induced [35S]GTPgammaS binding incubated for 1.5 hrs by liquid scintillation counting method

[7] = target: T2, Kappa-type opioid receptor
Description: Displacement of [3H]-diprenorphine from mouse kappa opioid receptor expressed in CHO cell membranes assessed as inhibition constant incubated for 1.5 hrs by competitive binding assay

[8] = tested on: Mus musculus; experiment: Antinociceptive activity against Swiss Webster mouse model assessed as increase in tail withdrawal latency from warm water by measuring maximum possible effect at 10 mg/kg, sc measured after 20 min by warm water tail immersion assay; format: functional, organism-based
[9] = tested on: Mus musculus; experiment: Anti-addiction activity in morphine pelleted Swiss Webster mouse assessed as escape jumps at 5 mg/kg, sc measured after 72 hrs; format: functional, organism-based
[10] = tested on: Mus musculus; experiment: Anti-addiction activity in morphine pelleted Swiss Webster mouse assessed as paw tremors at 5 mg/kg, sc measured after 72 hrs; format: functional, organism-based
[11] = tested on: Mus musculus; experiment: Anti-addiction activity in morphine pelleted Swiss Webster mouse assessed as wet dog shakes at 5 mg/kg, sc measured after 72 hrs; format: functional, organism-based
[12] = Solubility of the compound in DMSO; format: physicochemical

T1 sequence (P42866 whole entry): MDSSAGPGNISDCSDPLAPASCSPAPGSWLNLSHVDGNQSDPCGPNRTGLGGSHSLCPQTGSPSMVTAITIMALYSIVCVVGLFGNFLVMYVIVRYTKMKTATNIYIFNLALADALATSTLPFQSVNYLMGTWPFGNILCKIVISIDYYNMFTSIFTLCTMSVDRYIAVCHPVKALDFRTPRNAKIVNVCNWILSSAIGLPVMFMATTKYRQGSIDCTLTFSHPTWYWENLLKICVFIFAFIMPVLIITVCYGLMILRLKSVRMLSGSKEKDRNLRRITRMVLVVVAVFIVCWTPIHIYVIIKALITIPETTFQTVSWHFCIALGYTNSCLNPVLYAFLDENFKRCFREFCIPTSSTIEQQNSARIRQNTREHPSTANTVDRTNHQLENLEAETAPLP

O=C(Cc1ccco1)N[C@@H]1CC[C@@]2(O)[C@H]3Cc4ccc(O)c5c4[C@@]2(CCN3CC2CC2)[C@H]1O5
Ki [1]: 0.23 nM | Activity [2]: Active | EC50 [3]: 13.3 nM | Ki [4]: 45.6 nM | EC50 [5]: 0.97 nM | EC50 [6]: 42.3 nM | Ki [7]: 3.38 nM | Activity [8]: inactive

O=C(CCc1ccsc1)N[C@@H]1CC[C@@]2(O)[C@H]3Cc4ccc(O)c5c4[C@@]2(CCN3CC2CC2)[C@H]1O5
Activity [8]: Active

O=C(Cc1ccsc1)N[C@H]1CC[C@@]2(O)[C@H]3Cc4ccc(O)c5c4[C@@]2(CCN3CC2CC2)[C@H]1O5
Ki [1]: 0.23 nM | Activity [2]: inactive | Ki [4]: 39.4 nM | EC50 [5]: 1.21 nM | Ki [7]: 0.65 nM | Activity [8]: inactive

O=C(N[C@H]1CC[C@@]2(O)[C@H]3Cc4ccc(O)c5c4[C@@]2(CCN3CC2CC2)[C@H]1O5)c1cccs1
Activity [2]: Active | Activity [9]: Active | Activity [10]: Active | Activity [8]: inactive | Activity [11]: Active

O=C(N[C@@H]1CC[C@@]2(O)[C@H]3Cc4ccc(O)c5c4[C@@]2(CCN3CC2CC2)[C@H]1O5)c1ccco1
Ki [1]: 0.3 nM | Activity [2]: Active | EC50 [3]: 6.3 nM | Ki [4]: 84.7 nM | EC50 [5]: 0.98 nM | EC50 [6]: 35.5 nM | Ki [7]: 1.29 nM | Activity [8]: inactive

O=C(CCc1ccco1)N[C@@H]1CC[C@@]2(O)[C@H]3Cc4ccc(O)c5c4[C@@]2(CCN3CC2CC2)[C@H]1O5
Activity [2]: inactive | Activity [8]: inactive

O=C(Cc1ccc[nH]1)N[C@@H]1CC[C@@]2(O)[C@H]3Cc4ccc(O)c5c4[C@@]2(CCN3CC2CC2)[C@H]1O5
Ki [1]: 0.16 nM | Ki [4]: 24.3 nM | EC50 [5]: 0.8 nM | Ki [7]: 1.35 nM | Activity [8]: Active

O=C(CCc1ccoc1)N[C@@H]1CC[C@@]2(O)[C@H]3Cc4ccc(O)c5c4[C@@]2(CCN3CC2CC2)[C@H]1O5
Activity [2]: inactive | EC50 [5]: 0.63 nM | Activity [8]: inactive

O=C(Cc1cccs1)N[C@H]1CC[C@@]2(O)[C@H]3Cc4ccc(O)c5c4[C@@]2(CCN3CC2CC2)[C@H]1O5
Activity [2]: inactive | Activity [8]: inactive

O=C(CCc1cc[nH]c1)N[C@H]1CC[C@@]2(O)[C@H]3Cc4ccc(O)c5c4[C@@]2(CCN3CC2CC2)[C@H]1O5
Ki [1]: 0.7 nM | Activity [2]: Active | solubility [12]: Insoluble | Ki [4]: 8.62 nM | EC50 [5]: 3.86 nM | Ki [7]: 0.59 nM | Activity [8]: inactive

O=C(CCc1ccc[nH]1)N[C@@H]1CC[C@@]2(O)[C@H]3Cc4ccc(O)c5c4[C@@]2(CCN3CC2CC2)[C@H]1O5
Ki [1]: 0.52 nM | Ki [4]: 36.7 nM | EC50 [5]: 1.22 nM | Ki [7]: 1.25 nM | Activity [8]: Active

O=C(N[C@H]1CC[C@@]2(O)[C@H]3Cc4ccc(O)c5c4[C@@]2(CCN3CC2CC2)[C@H]1O5)c1ccoc1
Ki [1]: 0.5 nM | Ki [4]: 28.6 nM | EC50 [5]: 7.63 nM | Ki [7]: 2.14 nM | Activity [8]: Active

O=C(N[C@@H]1CC[C@@]2(O)[C@H]3Cc4ccc(O)c5c4[C@@]2(CCN3CC2CC2)[C@H]1O5)c1ccc[nH]1
Activity [2]: inactive | Activity [8]: inactive

O=C(Cc1cc[nH]c1)N[C@H]1CC[C@@]2(O)[C@H]3Cc4ccc(O)c5c4[C@@]2(CCN3CC2CC2)[C@H]1O5
Ki [1]: 3.62 nM | Activity [2]: inactive | Ki [4]: 14.4 nM | EC50 [5]: 51.4 nM | Ki [7]: 19 nM | Activity [8]: inactive

O=C(Cc1cc[nH]c1)N[C@@H]1CC[C@@]2(O)[C@H]3Cc4ccc(O)c5c4[C@@]2(CCN3CC2CC2)[C@H]1O5
Ki [1]: 0.28 nM | Activity [2]: inactive | Ki [4]: 37.8 nM | EC50 [5]: 1.18 nM | Ki [7]: 4.19 nM | Activity [8]: inactive

O=C(N[C@H]1CC[C@@]2(O)[C@H]3Cc4ccc(O)c5c4[C@@]2(CCN3CC2CC2)[C@H]1O5)c1ccc[nH]1
Activity [2]: Active | Activity [8]: inactive

O=C(CCc1ccsc1)N[C@H]1CC[C@@]2(O)[C@H]3Cc4ccc(O)c5c4[C@@]2(CCN3CC2CC2)[C@H]1O5
Activity [2]: inactive | Activity [8]: inactive

O=C(CCc1ccco1)N[C@H]1CC[C@@]2(O)[C@H]3Cc4ccc(O)c5c4[C@@]2(CCN3CC2CC2)[C@H]1O5
Activity [2]: inactive | Activity [8]: inactive

O=C(Cc1ccoc1)N[C@H]1CC[C@@]2(O)[C@H]3Cc4ccc(O)c5c4[C@@]2(CCN3CC2CC2)[C@H]1O5
Ki [1]: 0.42 nM | Activity [2]: inactive | Ki [4]: 3.74 nM | EC50 [5]: 8.32 nM | Ki [7]: 6.45 nM | Activity [8]: inactive

O=C(N[C@H]1CC[C@@]2(O)[C@H]3Cc4ccc(O)c5c4[C@@]2(CCN3CC2CC2)[C@H]1O5)c1ccsc1
Activity [2]: Active | Activity [9]: Active | Activity [8]: inactive | Activity [11]: Active

O=C(N[C@@H]1CC[C@@]2(O)[C@H]3Cc4ccc(O)c5c4[C@@]2(CCN3CC2CC2)[C@H]1O5)c1cc[nH]c1
Ki [1]: 0.36 nM | Ki [4]: 107 nM | EC50 [5]: 2.03 nM | Ki [7]: 4.51 nM | Activity [8]: Active

O=C(N[C@H]1CC[C@@]2(O)[C@H]3Cc4ccc(O)c5c4[C@@]2(CCN3CC2CC2)[C@H]1O5)c1ccco1
Ki [1]: 0.53 nM | Activity [2]: inactive | Ki [4]: 33.3 nM | EC50 [5]: 9.49 nM | Ki [7]: 1.97 nM | Activity [8]: inactive

O=C(N[C@@H]1CC[C@@]2(O)[C@H]3Cc4ccc(O)c5c4[C@@]2(CCN3CC2CC2)[C@H]1O5)c1ccsc1
Activity [2]: Active | Activity [8]: inactive

O=C(CCc1cccs1)N[C@@H]1CC[C@@]2(O)[C@H]3Cc4ccc(O)c5c4[C@@]2(CCN3CC2CC2)[C@H]1O5
Activity [8]: Active

O=C(Cc1ccsc1)N[C@@H]1CC[C@@]2(O)[C@H]3Cc4ccc(O)c5c4[C@@]2(CCN3CC2CC2)[C@H]1O5
Ki [1]: 0.2 nM | Activity [2]: inactive | Ki [4]: 36.1 nM | EC50 [5]: 3.24 nM | Ki [7]: 1.31 nM | Activity [8]: inactive

O=C(N[C@H]1CC[C@@]2(O)[C@H]3Cc4ccc(O)c5c4[C@@]2(CCN3CC2CC2)[C@H]1O5)c1cc[nH]c1
Ki [1]: 1.31 nM | Activity [2]: inactive | Ki [4]: 40.4 nM | EC50 [5]: 2.21 nM | Ki [7]: 2.78 nM | Activity [8]: inactive

O=C(CCc1ccoc1)N[C@H]1CC[C@@]2(O)[C@H]3Cc4ccc(O)c5c4[C@@]2(CCN3CC2CC2)[C@H]1O5
Activity [2]: inactive | EC50 [5]: 2.31 nM | Activity [8]: inactive

O=C(N[C@@H]1CC[C@@]2(O)[C@H]3Cc4ccc(O)c5c4[C@@]2(CCN3CC2CC2)[C@H]1O5)c1cccs1
Activity [2]: Active | Activity [8]: inactive

O=C(Cc1ccco1)N[C@H]1CC[C@@]2(O)[C@H]3Cc4ccc(O)c5c4[C@@]2(CCN3CC2CC2)[C@H]1O5
Ki [1]: 0.59 nM | Activity [2]: Active | EC50 [3]: 85.4 nM | Ki [4]: 4.61 nM | EC50 [5]: 2.74 nM | EC50 [6]: 6.2 nM | Ki [7]: 6.67 nM | Activity [8]: inactive

O=C(CCc1cc[nH]c1)N[C@@H]1CC[C@@]2(O)[C@H]3Cc4ccc(O)c5c4[C@@]2(CCN3CC2CC2)[C@H]1O5
Ki [1]: 0.41 nM | Activity [2]: inactive | Ki [4]: 67.5 nM | EC50 [5]: 1.6 nM | Ki [7]: 2.72 nM | Activity [8]: inactive

O=C(Cc1ccc[nH]1)N[C@H]1CC[C@@]2(O)[C@H]3Cc4ccc(O)c5c4[C@@]2(CCN3CC2CC2)[C@H]1O5
Ki [1]: 0.46 nM | Activity [2]: inactive | Ki [4]: 3.85 nM | EC50 [5]: 4.18 nM | Ki [7]: 2.88 nM | Activity [8]: inactive

O=C(Cc1ccoc1)N[C@@H]1CC[C@@]2(O)[C@H]3Cc4ccc(O)c5c4[C@@]2(CCN3CC2CC2)[C@H]1O5
Ki [1]: 0.22 nM | Activity [2]: inactive | Ki [4]: 73 nM | EC50 [5]: 0.91 nM | Ki [7]: 3.68 nM | Activity [8]: inactive

O=C(CCc1cccs1)N[C@H]1CC[C@@]2(O)[C@H]3Cc4ccc(O)c5c4[C@@]2(CCN3CC2CC2)[C@H]1O5
Ki [1]: 0.48 nM | Activity [2]: inactive | Ki [4]: 2.25 nM | EC50 [5]: 3.06 nM | Ki [7]: 1.76 nM | Activity [8]: inactive

O=C(Cc1cccs1)N[C@@H]1CC[C@@]2(O)[C@H]3Cc4ccc(O)c5c4[C@@]2(CCN3CC2CC2)[C@H]1O5
Activity [2]: inactive | Ki [4]: 64.9 nM | Activity [8]: inactive

O=C(CCc1ccc[nH]1)N[C@H]1CC[C@@]2(O)[C@H]3Cc4ccc(O)c5c4[C@@]2(CCN3CC2CC2)[C@H]1O5
Ki [1]: 0.58 nM | Activity [2]: inactive | Ki [4]: 7.58 nM | EC50 [5]: 3.79 nM | Ki [7]: 0.54 nM | Activity [8]: inactive

O=C(N[C@@H]1CC[C@@]2(O)[C@H]3Cc4ccc(O)c5c4[C@@]2(CCN3CC2CC2)[C@H]1O5)c1ccoc1
Ki [1]: 8.47 nM | Ki [4]: 1980 nM | EC50 [5]: 35 nM | Ki [7]: 29.4 nM | Activity [8]: Active
